*1 amine or outer side, *2 acyl side, *3 side chain or, on linkers, in order; H or OH if unused. Where a SMILES comes first, the peptide text is derived from it. Bridges are numbered along the chain shown (N, C = ends). [ ]: non-standard residue; d: D form. TATA = O=C(CC[*:1])N1CN(C(=O)CC[*:2])CN(C(=O)CC[*:3])C1; Orn = NCCC[C@H](N)C(=O)O
Target: TSLP (Homo sapiens, UniProt Q969D9)
Assay: Human TSLP Surface Plasmon Resonance (SPR) binding assay
Design: The resulting construct spCD33-6×HN-TEV-hTSLP(29-159)-Avi; 6xHN tag with TEV site (N, cleaved yes); made in house; host or cells: Expi293F cells
Conditions: biotinylated human TSLP immobilized on streptavidin chip; 20° C.; steady-state or kinetic 1:1 fit; read-out: hTSLP SPR Kd

Chain of TSLP (Q969D9 29-159): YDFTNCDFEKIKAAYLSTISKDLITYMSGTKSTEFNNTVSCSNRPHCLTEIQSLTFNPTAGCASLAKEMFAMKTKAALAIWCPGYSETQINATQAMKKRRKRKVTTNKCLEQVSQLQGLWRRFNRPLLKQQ

## CC(C)C[C@@H]1NC(=O)[C@H](CC(=O)O)NC(=O)[C@H](CCCCN)NC(=O)[C@@H](NC(=O)[C@H](C)N)CSCCC(=O)N2CN3CN(C2)C(=O)CCSC[C@H](NC(=O)[C@H]([C@@H](C)O)NC(=O)[C@H](Cc2c[nH]c4ccccc24)NC(=O)[C@@H]2CCCN2C(=O)[C@H](CC(=O)O)NC1=O)C(=O)N[C@@H](CO)C(=O)N[C@@H](CO)C(=O)N[C@@H](Cc1c[nH]c2ccccc12)C(=O)N[C@@H](Cc1c[nH]c2ccccc12)C(=O)N[C@@H](CCC(=O)O)C(=O)N[C@H](C(=O)N[C@@H](C)C(=O)N1CCC[C@H]1C(=O)N[C@@H](CC(N)=O)C(N)=O)CSCCC3=O [Example 167, A-(SEQ ID NO: 125)-APN] (H-ACKDLDPWTCSSWWECAPN-NH2; linker 2-10-16 via TATA; N-terminus assumed)
  Kd: 170 nM

## CC(C)C[C@@H]1NC(=O)[C@H](Cc2c[nH]c3ccccc23)NC(=O)[C@H](Cc2c[nH]c3ccccc23)NC(=O)[C@H](CCC(=O)O)NC(=O)[C@H](CCC(=O)O)NC(=O)[C@@H]2CSCCC(=O)N3CN(CN(C3)C(=O)CCSC[C@@H](C(=O)N[C@@H](C)C(=O)N[C@@H](Cc3c[nH]cn3)C(=O)N3CCC[C@H]3C(N)=O)NC1=O)C(=O)CCSC[C@H](NC(=O)[C@H](C)N)C(=O)N[C@@H](CCCNC(=N)N)C(=O)N[C@@H](CC(=O)O)C(=O)N[C@@H](CC(C)C)C(=O)N[C@@H](CC(=O)O)C(=O)N1CCC[C@H]1C(=O)N[C@@H](Cc1c[nH]c3ccccc13)C(=O)N[C@@H]([C@@H](C)O)C(=O)N2 [Example 170, A-(SEQ ID NO: 128)-AHP] (H-ACRDLDPWTCEEWWLCAHP-NH2; linker 2-10-16 via TATA; N-terminus and C-terminus assumed)
  Kd: 170 nM

## CC(C)C[C@@H]1NC(=O)[C@H](Cc2c[nH]c3ccccc23)NC(=O)[C@H](Cc2c[nH]c3ccccc23)NC(=O)[C@H](CO)NC(=O)[C@H](CO)NC(=O)[C@@H]2CSCCC(=O)N3CN(CN(C3)C(=O)CCSC[C@H](NC(=O)[C@@H](NC(=O)[C@H](CC(=O)O)NC(=O)[C@H](CCCNC(=N)N)NC(=O)[C@H](CCC(N)=O)NC(=O)[C@H](Cc3ccc(O)cc3)NC(=O)[C@@H](N)CCC(=O)O)C(C)C)C(=O)N[C@@H](CCCNC(=N)N)C(=O)N[C@@H](CC(=O)O)C(=O)N[C@@H](CC(C)C)C(=O)N[C@@H](CC(=O)O)C(=O)N3CCC[C@H]3C(=O)N[C@@H](Cc3c[nH]c4ccccc34)C(=O)N[C@@H]([C@@H](C)O)C(=O)N2)C(=O)CCSC[C@@H](C(=O)N[C@@H](C)C(N)=O)NC1=O [Example 173, EYQRDV-(SEQ ID NO: 122)-A]
  Kd: 77 nM

## CC(C)C[C@@H]1NC(=O)[C@H](Cc2c[nH]c3ccccc23)NC(=O)[C@H](Cc2c[nH]c3ccccc23)NC(=O)[C@H](CO)NC(=O)[C@H](CO)NC(=O)[C@@H]2CSCCC(=O)N3CN(CN(C3)C(=O)CCSC[C@@H](C(=O)N[C@@H](CO)C(=O)N[C@@H](CCC(=O)O)C(=O)N[C@@H](CO)C(=O)N[C@H](C(=O)N[C@@H](Cc3c[nH]cn3)C(=O)N[C@H](C(=O)N[C@@H](C)C(N)=O)[C@@H](C)O)C(C)C)NC1=O)C(=O)CCSC[C@H](NC(=O)[C@H](C)N)C(=O)N[C@@H](CCCNC(=N)N)C(=O)N[C@@H](CC(=O)O)C(=O)N[C@@H](CC(C)C)C(=O)N[C@@H](CC(=O)O)C(=O)N1CCC[C@H]1C(=O)N[C@@H](Cc1c[nH]c3ccccc13)C(=O)N[C@@H]([C@@H](C)O)C(=O)N2 [Example 175, A-(SEQ ID NO: 122)-SESVHTA]
  Kd: 240 nM

## CC(C)C[C@@H]1NC(=O)[C@H](Cc2c[nH]c3ccccc23)NC(=O)[C@H](Cc2c[nH]c3ccccc23)NC(=O)[C@H](CO)NC(=O)[C@H](CO)NC(=O)[C@@H]2CSCCC(=O)N3CN(CN(C3)C(=O)CCSC[C@@H](C(=O)N[C@@H](CCCCN)C(=O)N3CCC[C@H]3C(=O)N[C@@H](CC(=O)O)C(=O)N[C@@H](Cc3c[nH]cn3)C(=O)N[C@H](C(=O)N[C@@H](CC(=O)O)C(=O)N[C@@H](C)C(N)=O)C(C)C)NC1=O)C(=O)CCSC[C@H](NC(=O)[C@H](C)N)C(=O)N[C@@H](CCCNC(=N)N)C(=O)N[C@@H](CC(=O)O)C(=O)N[C@@H](CC(C)C)C(=O)N[C@@H](CC(=O)O)C(=O)N1CCC[C@H]1C(=O)N[C@@H](Cc1c[nH]c3ccccc13)C(=O)N[C@@H]([C@@H](C)O)C(=O)N2 [Example 177, A-(SEQ ID NO: 122)-KPDHVDA]
  Kd: 580 nM

## CC(C)C[C@@H]1NC(=O)[C@H](Cc2c[nH]c3ccccc23)NC(=O)[C@H](Cc2c[nH]c3ccccc23)NC(=O)[C@H]([C@@H](C)O)NC(=O)[C@H](CCC(=O)O)NC(=O)[C@@H]2CSCCC(=O)N3CN(CN(C3)C(=O)CCSC[C@H](N)C(=O)N[C@@H](CCCCN)C(=O)N[C@@H](CCC(=O)O)C(=O)N[C@@H](CC(C)C)C(=O)N[C@@H](CC(=O)O)C(=O)N3CCC[C@H]3C(=O)N[C@@H](Cc3c[nH]c4ccccc34)C(=O)N[C@@H]([C@@H](C)O)C(=O)N2)C(=O)CCSC[C@@H](C(N)=O)NC1=O [Example 179, (SEQ ID NO: 130)] (H-CKELDPWTCETWWLC-NH2; linker 1-9-15 via TATA)
  Kd: 360 nM

## CC(C)C[C@@H]1NC(=O)[C@H](Cc2c[nH]c3ccccc23)NC(=O)[C@H](Cc2c[nH]c3ccccc23)NC(=O)[C@H]([C@@H](C)O)NC(=O)[C@H](CCC(=O)O)NC(=O)[C@@H]2CSCCC(=O)N3CN(CN(C3)C(=O)CCSC[C@H](N)C(=O)N[C@@H](CCCN)C(=O)N[C@@H](CCC(=O)O)C(=O)N[C@@H](CC(C)C)C(=O)N[C@@H](CC(=O)O)C(=O)N3CCC[C@H]3C(=O)N[C@@H](Cc3c[nH]c4ccccc34)C(=O)N[C@@H]([C@@H](C)O)C(=O)N2)C(=O)CCSC[C@@H](C(N)=O)NC1=O [Example 180, (SEQ ID NO: 131)] (H-C[Orn]ELDPWTCETWWLC-NH2; linker 1-9-15 via TATA; N-terminus and C-terminus assumed)
  Kd: 300 nM

## CC(C)C[C@@H]1NC(=O)[C@H](Cc2c[nH]c3ccccc23)NC(=O)[C@H](Cc2c[nH]c3ccccc23)NC(=O)[C@H]([C@@H](C)O)NC(=O)[C@H](CCC(=O)O)NC(=O)[C@@H]2CSCCC(=O)N3CN(CN(C3)C(=O)CCSC[C@H](N)C(=O)N[C@@H](CCC(N)=O)C(=O)N[C@@H](CCC(=O)O)C(=O)N[C@@H](CC(C)C)C(=O)N[C@@H](CC(=O)O)C(=O)N3CCC[C@H]3C(=O)N[C@@H](Cc3c[nH]c4ccccc34)C(=O)N[C@@H]([C@@H](C)O)C(=O)N2)C(=O)CCSC[C@@H](C(N)=O)NC1=O [Example 181, (SEQ ID NO: 132)] (H-CQELDPWTCETWWLC-NH2; linker 1-9-15 via TATA; N-terminus and C-terminus assumed)
  Kd: 310 nM

## CC(C)C[C@@H]1NC(=O)[C@H](Cc2c[nH]c3ccccc23)NC(=O)[C@H](Cc2c[nH]c3ccccc23)NC(=O)[C@H]([C@@H](C)O)NC(=O)[C@H](CCC(=O)O)NC(=O)[C@@H]2CSCCC(=O)N3CN(CN(C3)C(=O)CCSC[C@H](N)C(=O)N[C@@H]([C@@H](C)O)C(=O)N[C@@H](CCC(=O)O)C(=O)N[C@@H](CC(C)C)C(=O)N[C@@H](CC(=O)O)C(=O)N3CC(F)(F)C[C@H]3C(=O)N[C@@H](Cc3c[nH]c4ccccc34)C(=O)N[C@@H]([C@@H](C)O)C(=O)N2)C(=O)CCSC[C@@H](C(N)=O)NC1=O [Example 182, (SEQ ID NO: 133)]
  Kd: 1300 nM

From patent publication US11866518B2, “Bicyclic peptide ligands specific for TSLP” (BicycleTx Limited, priority 2020, dated 2024)
